Experimental data: the supplement of paper PMC10627819

Experiments:
B. subtilis 168 = test: Bliss interaction score (quartile over a dose matrix) (fitness difference); higher = more antagonism (negative = synergy)
Summary of the method: (§1)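 Each OD595 reading at entry into stationary phase was scaled to the robust mean of the untreated wells on its plate, with a ceiling of 1. These ratios define fitness, and single-drug fitness was inferred from combinations. The Bliss score compares observed fitness with the product-based expectation and is reported as quartiles across all replicate types, technical, biological and donor/recipient.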

S. aureus DSM 20231 [1] = test: as above
Summary of the method: as §1

S. aureus Newman [2] = test: as above
Summary of the method: as §1

S. pneumoniae D39V = test: as above
Summary of the method: as §1

S. aureus DSM 20231 [3] = test: fitness (endpoint OD595 vs no drug) (fraction); higher = more growth
Summary of the method: (§2)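 In 384-well plates at 37 °C, cultures began at OD595 0.01 in 30 µl, with 55 µl used for S. pneumoniae. OD595 readings every 30 min for 14 h were corrected by the first reading. Fitness divides the stationary-phase transition optical density by the robust mean of no-drug control wells. The result is capped at 1.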

S. aureus Newman [4] = test: as above
Summary of the method: as §2
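For Bliss interaction score (quartile over a dose matrix) in this document: first quartile when negative (synergy) and third quartile when positive (antagonism).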
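For fitness (endpoint OD595 vs no drug) in this document: OD595 on entry to stationary phase over no-drug wells; at most 1.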

CC[C@H]1OC(=O)[C@H](C)[C@@H](O[C@H]2C[C@@](C)(OC)[C@@H](O)[C@H](C)O2)[C@H](C)[C@@H](O[C@@H]2O[C@H](C)C[C@H](N(C)C)[C@H]2O)[C@](C)(O)C[C@@H](C)CN(C)[C@H](C)[C@@H](O)[C@]1(C)O [Azithromycin] + CO/N=C(\C(=O)N[C@@H]1C(=O)N2C(C(=O)[O-])=C(C[N+]3(C)CCCC3)CS[C@H]12)c1csc(N)n1 [Cefepime]
Details | Bliss interaction score
B. subtilis 168 | 0.0866
S. aureus DSM 20231 [1] | 0.103
S. aureus Newman [2] | 0.0874
S. pneumoniae D39V | 0.112

fitness
Details | first compound 0.125 µg/mL | first compound 0.25 µg/mL | first compound 0.5 µg/mL
S. aureus DSM 20231 [3], partner 0.125 µg/mL | 0.842 | 0.858 | –
S. aureus DSM 20231 [3], partner 0.25 µg/mL | 0.818 | 0.838 | –
S. aureus DSM 20231 [3], partner 0.5 µg/mL | 0.833 | 0.843 | 0.565
S. aureus Newman [4], partner 0.125 µg/mL | 0.872 | 0.927 | 0.752
S. aureus Newman [4], partner 0.25 µg/mL | 0.799 | 0.872 | 0.669
S. aureus Newman [4], partner 0.5 µg/mL | 0.794 | 0.809 | 0.551

CC[C@H]1OC(=O)[C@H](C)[C@@H](O[C@H]2C[C@@](C)(OC)[C@@H](O)[C@H](C)O2)[C@H](C)[C@@H](O[C@@H]2O[C@H](C)C[C@H](N(C)C)[C@H]2O)[C@](C)(O)C[C@@H](C)CN(C)[C@H](C)[C@@H](O)[C@]1(C)O [Azithromycin] + Cn1nnc(-c2ccc(-c3ccc(N4C[C@H](CO)OC4=O)cc3F)cn2)n1 [Tedizolid]
Details | Bliss interaction score
B. subtilis 168 | -0.0935
S. aureus DSM 20231 [1] | -0.0615
S. aureus Newman [2] | -0.14
S. pneumoniae D39V | 0.0648

fitness
Details | first compound 0.125 µg/mL | first compound 0.25 µg/mL | first compound 0.5 µg/mL
S. aureus DSM 20231 [3], partner 0.0625 µg/mL | 0.887 | 0.765 | –
S. aureus DSM 20231 [3], partner 0.125 µg/mL | 0.7 | 0.667 | 0.294
S. aureus DSM 20231 [3], partner 0.25 µg/mL | 0.165 | 0.231 | 0.0821
S. aureus Newman [4], partner 0.0625 µg/mL | 0.867 | 0.818 | –
S. aureus Newman [4], partner 0.125 µg/mL | 0.744 | 0.644 | –

CC[C@H]1OC(=O)[C@H](C)[C@@H](O[C@H]2C[C@@](C)(OC)[C@@H](O)[C@H](C)O2)[C@H](C)[C@@H](O[C@@H]2O[C@H](C)C[C@H](N(C)C)[C@H]2O)[C@](C)(O)C[C@@H](C)CN(C)[C@H](C)[C@@H](O)[C@]1(C)O [Azithromycin] + O=C(N[C@H](CO)[C@H](O)c1ccc([N+](=O)[O-])cc1)C(Cl)Cl [Chloramphenicol]
Details | Bliss interaction score
B. subtilis 168 | -0.116
S. aureus DSM 20231 [1] | -0.153
S. aureus Newman [2] | -0.101
S. pneumoniae D39V | 0.0336

fitness
Details | first compound 0.125 µg/mL | first compound 0.25 µg/mL | first compound 0.5 µg/mL
S. aureus DSM 20231 [3], partner 0.75 µg/mL | 0.703 | 0.657 | 0.29
S. aureus DSM 20231 [3], partner 1.5 µg/mL | 0.544 | 0.366 | 0.139
S. aureus DSM 20231 [3], partner 3 µg/mL | 0.155 | 0.113 | 0.0604
S. aureus Newman [4], partner 0.75 µg/mL | 0.76 | 0.692 | 0.461
S. aureus Newman [4], partner 1.5 µg/mL | 0.515 | 0.527 | 0.253
S. aureus Newman [4], partner 3 µg/mL | – | 0.2 | 0.109
